The values below come from PubChem BioAssay (NCI).

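Cultured in 96-well plates, cells were exposed to test compound for 48 hours across five concentrations. GI50: concentration for 50% inhibition of growth. The concentration for full growth arrest is given as TGI.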

Test systems include EKVX NSCLC; HCT-15 colon; HT29 colon; K-562 leukemia; MOLT-4 leukemia; NCI-H23 lung; SK-MEL-5 melanoma; SN12C renal; PC-3 prostate.
What all share (assay): growth of human tumour cells (NCI), 48 h

On to `COc1ccc(C(=O)C2CCC(C(=O)O)C2)cc1` (stereo not given), for which the TGI in the experiment with EKVX NSCLC, in the experiment with HCT-15 colon, in the experiment with HT29 colon, with K-562 leukemia, in the experiment with MOLT-4 leukemia and with NCI-H23 lung was more than 100 µM each time. The TGI with SK-MEL-5 melanoma and with SN12C renal was more than 100 µM in each case.
Regarding `COc1ccc(NC(=O)Oc2ccc3c(C)cc(=O)oc3c2)c(OC)c1` (tested in a mixture with another compound), the TGI with EKVX NSCLC, in the experiment with HCT-15 colon, in the experiment with HT29 colon, in the experiment on MOLT-4 leukemia, with NCI-H23 lung and with PC-3 prostate was more than 100 µM throughout. The TGI in the experiment with SK-MEL-5 melanoma and in the experiment with SN12C renal was more than 100 µM throughout.
In the case of `C=C(C)[C@@H]1CC[C@]2(CO)CC[C@]3(C)[C@H](CC[C@@H]4[C@@]5(C)CCCNC(C)(C)[C@@H]5CC[C@]43C)[C@@H]12`, the GI50 is 1.55 µM in the experiment with EKVX NSCLC; 1.39 µM in the experiment on HCT-15 colon; 1.08 µM with K-562 leukemia; 1.79 µM with MOLT-4 leukemia; 1.71 µM in the experiment on NCI-H23 lung; 1.51 µM with PC-3 prostate. In addition, the GI50 was 1.38 µM in the experiment on SK-MEL-5 melanoma and 1.62 µM in the experiment on SN12C renal. Besides, the TGI turned out to be 3.03 µM with EKVX NSCLC; 2.77 µM in the experiment on HCT-15 colon; 3.79 µM with K-562 leukemia; 4.5 µM with MOLT-4 leukemia; 3.39 µM with NCI-H23 lung; 2.94 µM in the experiment with PC-3 prostate. In addition, the results for the TGI with SK-MEL-5 melanoma and in the experiment on SN12C renal were 2.7 µM and 3.03 µM, respectively.
On to `COC(=O)CCC(=O)Nc1ccc(Cl)cc1C`, for which the TGI in the experiment on EKVX NSCLC, in the experiment with HCT-15 colon, with HT29 colon, with K-562 leukemia, in the experiment with MOLT-4 leukemia and with NCI-H23 lung was more than 100 µM throughout. Besides, the TGI with SK-MEL-5 melanoma and with SN12C renal was more than 100 µM in each case.
Turning to `CSC(=NC(=O)c1ccccc1Cl)SCCSC(=NC(=O)c1ccccc1Cl)SC`, the TGI with EKVX NSCLC, in the experiment with HCT-15 colon, in the experiment on HT29 colon, with K-562 leukemia, with MOLT-4 leukemia and with NCI-H23 lung was more than 100 µM each time. Besides, the TGI in the experiment on SK-MEL-5 melanoma and with SN12C renal was more than 100 µM each time.
As to `CCC[CH2][Sn](=[O])[CH2]CCC`, the GI50 in the experiment on EKVX NSCLC, in the experiment with HCT-15 colon, in the experiment with HT29 colon, with K-562 leukemia, in the experiment on MOLT-4 leukemia and with NCI-H23 lung was more than 50 µM each time. Moreover, the GI50 in the experiment with SK-MEL-5 melanoma and with SN12C renal was more than 50 µM each time. The TGI in the experiment with EKVX NSCLC, in the experiment on HCT-15 colon, in the experiment with HT29 colon, in the experiment with K-562 leukemia, in the experiment with MOLT-4 leukemia and with NCI-H23 lung was more than 50 µM throughout. The TGI in the experiment with SK-MEL-5 melanoma and in the experiment with SN12C renal was more than 50 µM in each case.
Take `c1ccc(SC(Sc2ccccc2)=C2CCC2)cc1`: the TGI in the experiment on EKVX NSCLC, in the experiment on HCT-15 colon, with K-562 leukemia, in the experiment on MOLT-4 leukemia, in the experiment with NCI-H23 lung and in the experiment on SK-MEL-5 melanoma was more than 100 µM each time. The compound also came in with a TGI in the experiment with SN12C renal of more than 100 µM.
Consider `NC(=S)N1N=C2CCCCCC[C@@H]2[C@H]1c1ccccc1`, for which the TGI with EKVX NSCLC, with HCT-15 colon, in the experiment on HT29 colon, in the experiment on K-562 leukemia, in the experiment on MOLT-4 leukemia and in the experiment on NCI-H23 lung was more than 100 µM in each case. Also, the TGI with SK-MEL-5 melanoma and with SN12C renal was more than 100 µM throughout.
As to `CCCCCCCCCCCCSC(=S)c1c(C)[nH]n(-c2ccccc2)c1=O`, the TGI with EKVX NSCLC is more than 50 µM; in the experiment on HCT-15 colon it was more than 50 µM; in the experiment on HT29 colon, 36.6 µM; with K-562 leukemia, more than 50 µM; in the experiment on MOLT-4 leukemia, 46.1 µM; in the experiment with NCI-H23 lung it was 35.8 µM. The TGI is 15.9 µM in the experiment on SK-MEL-5 melanoma and more than 50 µM in the experiment on SN12C renal.
As to `COc1ccc2c(c1)c(-c1nc(-c3cn(C)c4ccncc34)cs1)cn2C`, the GI50 is 1.77 µM in the experiment on EKVX NSCLC; 1.54 µM with HCT-15 colon; 1.43 µM in the experiment with HT29 colon; 1.9 µM in the experiment with K-562 leukemia; 1.81 µM with NCI-H23 lung; 1.89 µM in the experiment with PC-3 prostate. In addition, the values for the GI50 in the experiment on SK-MEL-5 melanoma and in the experiment on SN12C renal were 1.52 µM and 1.85 µM, respectively. Besides, the TGI in the experiment with EKVX NSCLC amounted to 3.56 µM; in the experiment on HCT-15 colon, 3.33 µM; in the experiment on HT29 colon it was 3.1 µM; with K-562 leukemia it was 4.2 µM; in the experiment on NCI-H23 lung, 3.45 µM; in the experiment with PC-3 prostate, 4.79 µM. In addition, the TGI with SK-MEL-5 melanoma is 2.85 µM; in the experiment with SN12C renal, 3.49 µM.
Turning to `CC(=O)OCc1c(O)c2c([nH]c1=O)CCc1ccccc1-2`, the TGI is more than 350 µM with EKVX NSCLC; 112 µM in the experiment with HCT-15 colon; 311 µM in the experiment on HT29 colon; more than 350 µM in the experiment on K-562 leukemia; more than 350 µM in the experiment with MOLT-4 leukemia; 218 µM in the experiment on NCI-H23 lung. Also, the figures for the TGI with SK-MEL-5 melanoma and in the experiment on SN12C renal were 177 µM and 155 µM, respectively.
Turning to `CCOC(=O)C12CCCC1(O)N(NC(=O)OC)C(C)=C2C(=O)OC` (stereo not given), the TGI in the experiment with EKVX NSCLC, in the experiment with HCT-15 colon, in the experiment on HT29 colon, in the experiment on K-562 leukemia, with MOLT-4 leukemia and with NCI-H23 lung was more than 100 µM in each case. In the experiment with SN12C renal, the TGI is more than 100 µM.
Regarding `Cc1ccc(/C=C/C(=O)c2ccc(Cl)c(Cl)c2)cc1`, the TGI in the experiment on EKVX NSCLC, in the experiment on HT29 colon, with K-562 leukemia, in the experiment with MOLT-4 leukemia, in the experiment with NCI-H23 lung and in the experiment with SK-MEL-5 melanoma was more than 100 µM each time. The compound also displayed a TGI in the experiment on SN12C renal of more than 100 µM.
